# From US20240393292A1, “ALLERGY ANTIGEN AND EPITOPE THEREOF” (HOYU CO., LTD., priority 2019, published 2024)
# Test system: IgE antibodies from patients
# Test: Wheat epitope mapping (2): overlapping 10-amino-acid peptide fragments shifted by one amino acid;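 for Rank of partial sequence as epitope binding to IgE antibody: key = sequence deemed particularly important within the common 15-residue sequence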;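 for epitope sequence binding to IgE antibody, rank (Key/Preferably/More preferably): key of grades: preferably = shorter partial sequence still acting as epitope; more preferably = sequence improving IgE binding; key = particularly important sequence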
# Type: binding, human
# Outline: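 Residual binding was banded as <30% none, 30–<50% poor, 50–<70% somewhat poor and ≥70% retained, relative to the parent overlapping sequence set to 100%. Values were chemiluminescent IgE signals from patient sera after subtracting secondary-antibody-only controls. The peptides were spot-synthesised 10-mers shifted by one amino acid.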
# [1] = serum of patient P8 (WDEIA), sequence without X
# [2] = serum of patient P50 (child, general immediate type allergy to wheat), sequence without X
# [3] = serum of patient P12 (WDEIA), sequence without X
# [4] = serum of patient P18 (WDEIA), sequence without X
substance,measurement,setting,value
1291 (LPRS; REGION 1..4: note = epitope) [compound 1291],"Epitope sequence binding to IgE antibody, rank of the sequence","serum of patient P53 (child, general immediate type allergy to wheat), sequence without X",Key
2271 (LGGIDKRV; REGION 1..8: note = epitope) [compound 2271],"Epitope sequence binding to IgE antibody, rank of the sequence (Key/Preferably/More preferably)",[1],More preferably
2714 (GIGTVPVGRV; REGION 1..10: note = epitope) [compound 2714],"Epitope sequence binding to IgE antibody, rank of the sequence","serum of patient P17 (WDEIA), partial sequence",Key
1590 (QPFPQTQQPQ; REGION 1..10: note = epitope) [compound 1590],Rank of partial sequence as epitope binding to IgE antibody,[2],Preferably
1180 (QQFPP; REGION 1..5: note = epitope) [compound 1180],"Epitope sequence binding to IgE antibody, rank of the sequence",[3],Key
1480 (YLQPQQPIS; REGION 1..9: note = epitope) [compound 1480],Rank of partial sequence as epitope binding to IgE antibody,"serum of patient P33 (WDEIA), sequence without X",Key
1936 (QVPLVQQ; REGION 1..7: note = epitope) [compound 1936],"epitope sequence binding to IgE antibody, rank (Key/Preferably/More preferably)",serum of patient P19 (WDEIA),Key
1871 (VRTLQR; REGION 1..6: note = epitope) [compound 1871],"epitope sequence binding to IgE antibody, rank (Key/Preferably/More preferably)",serum of patient P29 (WDEIA),Key
2294 (LGGIDKRVIE; REGION 1..10: note = epitope) [compound 2294],"Epitope sequence binding to IgE antibody, rank of the sequence (Key/Preferably/More preferably/Further preferably)",[2],More preferably
1735 (EAANFT; REGION 1..6: note = epitope) [compound 1735],"epitope sequence binding to IgE antibody, rank (Key/Preferably/More preferably)","serum of patient P56 (child, general immediate type allergy to wheat)",Key
1729 (ANFTSQVIIM; REGION 1..10: note = epitope) [compound 1729],"epitope sequence binding to IgE antibody, rank (Key/Preferably/More preferably)","serum of patient P52 (child, general immediate type allergy to wheat)",Preferably
1538 (LVQQQQFLGQ; REGION 1..10: note = epitope) [compound 1538],Rank of partial sequence as epitope binding to IgE antibody,"serum of patient P17 (WDEIA), sequence without X",Further preferably
2223 (IRNYRVA; REGION 1..7: note = epitope) [compound 2223],"Epitope sequence binding to IgE antibody, rank of the sequence (Key/Preferably/More preferably)",[1],Key
1887 (YTVRTLQRTV; REGION 1..10: note = epitope) [compound 1887],"epitope sequence binding to IgE antibody, rank (Key/Preferably/More preferably)","serum of patient G5 (adult, general immediate type allergy to wheat)",Preferably
2267 (KRVIERFEK; REGION 1..9: note = epitope) [compound 2267],"Epitope sequence binding to IgE antibody, rank of the sequence (Key/Preferably/More preferably)","serum of patient P5 (WDEIA), sequence without X",Preferably
2339 (AIIYS; REGION 1..5: note = epitope) [compound 2339],"Epitope sequence binding to IgE antibody, rank of the sequence (Key/Preferably/More preferably)","serum of patient G6 (adult, general immediate type allergy to wheat), sequence without X",Key
2358 (TEIV; REGION 1..4: note = epitope) [compound 2358],"Epitope sequence binding to IgE antibody, rank of the sequence (Key/Preferably/More preferably)",[4],Key
1464 (QQPISQQQA; REGION 1..9: note = epitope) [compound 1464],Rank of partial sequence as epitope binding to IgE antibody,"serum of patient P24 (WDEIA), sequence without X",More preferably
1889 (TVRTLQR; REGION 1..7: note = epitope) [compound 1889],"epitope sequence binding to IgE antibody, rank (Key/Preferably/More preferably)","serum of patient G6 (adult, general immediate type allergy to wheat)",Preferably
1300 (SINVENVED; REGION 1..9: note = epitope) [compound 1300],"Epitope sequence binding to IgE antibody, rank of the sequence (Key/Preferably/More preferably/Further preferably)","serum of patient P2 (WDEIA), sequence without X",Preferably
2599 (QLVQQLCC; REGION 1..8: note = epitope) [compound 2599],"Epitope sequence binding to IgE antibody, rank of the sequence","serum of patient P53 (child, general immediate type allergy to wheat), partial sequence",Preferably
1381 (PWQQQPLPPQ; REGION 1..10: note = epitope) [compound 1381],"Epitope sequence binding to IgE antibody, rank of the sequence",[3],Preferably
2634 (EAAE; REGION 1..4: note = epitope) [compound 2634],"Epitope sequence binding to IgE antibody, rank of the sequence","serum of patient P7 (WDEIA), partial sequence",Key
1442 (YLQPQQPIS; REGION 1..9: note = epitope) [compound 1442],Rank of partial sequence as epitope binding to IgE antibody,[4],Key
1862 (VRTLQ; REGION 1..5: note = epitope) [compound 1862],"epitope sequence binding to IgE antibody, rank (Key/Preferably/More preferably)",serum of patient P24 (WDEIA),Key
1295 (VSMILPRSD; REGION 1..9: note = epitope) [compound 1295],"Epitope sequence binding to IgE antibody, rank of the sequence","serum of patient G7 (adult, general immediate type allergy to wheat), sequence without X",Key
1878 (TVRTLQRT; REGION 1..8: note = epitope) [compound 1878],"epitope sequence binding to IgE antibody, rank (Key/Preferably/More preferably)",serum of patient P32 (WDEIA),Preferably
1775 (LKKVGYN; REGION 1..7: note = epitope) [compound 1775],"epitope sequence binding to IgE antibody, rank (Key/Preferably/More preferably)","serum of patient P55 (child, general immediate type allergy to wheat)",Key
1740 (KEAANF; REGION 1..6: note = epitope) [compound 1740],"epitope sequence binding to IgE antibody, rank (Key/Preferably/More preferably)","serum of patient G1 (adult, general immediate type allergy to wheat)",Key
